This is an account of results in patent US20120316203A1, “Compositions and Methods for Inhibition of Cancers” (THE OHIO STATE UNIVERSITY RESEARCH FOUNDATION, priority 2009, published 2012).

In data set [1] the test system is HER1, SREBP1, ERK1/2, MMP-2 and VEGF in A2780 and SKOV3 cells. Nature of the data set: Blotting of FAS/FAK-regulating proteins. Type of data set: cell-based, human. The conditions noted are these: 10 μM, 24 h. As to the method:
Cells in RPMI 1640 medium were treated with DMSO (control) or HO-3867 (10 μM) for 24 h. Equal volumes of DMSO (0.1% v/v) were present in each treatment. Following treatment, the cell lysates were prepared in nondenaturing lysis buffer containing 10-mM Tris-HCl (pH 7.4), 150-mM NaCl, 1% Triton X-100, 1-mM EDTA, 1-mM EGTA, 0.3-mM phenylmethylsulfonyl fluoride, 0.2-mM sodium orthovanadate, 0.5% NP40, 1-μg/ml aprotinin, and 1-μg/ml leupetin. The lysates were centrifuged at 10,000×g for 20 min at 4° C., and the supernatant was separated. The protein concentration in the lysates was determined using a Pierce detergent-compatible protein assay kit. For Western blotting, 25 to 50 μg of protein lysate per sample was denatured in 2×SDS-PAGE sample buffer and subjected to SDS-PAGE on a 10% tris-glycine gel. The separated proteins were transferred to a PVDF membrane and blocked with 5% nonfat milk powder (w/v) in TBST (10-mM Tris, 10-mM NaCl, 0.1% Tween 20) for 1 h at room temperature or overnight at 4° C. The membranes were then incubated with the primary antibodies. The bound antibodies were detected with horseradish peroxidase (HRP)-labeled sheep anti-mouse IgG or HRP-labeled donkey anti-rabbit IgG using an enhanced chemiluminescence detection system (ECL Advanced kit). Protein expressions were determined using Image Gauge version 3.45.

The test system of data set [2] is p53, p21, p27, cdk2, and cyclin A in A2780 cells. Nature of the data set: Immunoblot of cell cycle regulatory proteins. Type of data set: cell-based, human. Particulars: Western blot. On the procedure:
Cells in RPMI 1640 were treated with DMSO (control) or HO-3867 (10 μmol/L) for 24 hours. Equal volumes of DMSO (0.1% v/v) were present in each treatment. Following treatment, the cell lysates were prepared in non-denaturing lysis buffer containing 10 mmol/L Tris-HCl (pH 7.4), 150 mmol/L NaCl, 1% Triton X-100, 1 mmol/L EDTA, 1 mmol/L EGTA, 0.3 mmol/L phenylmethyl-sulfonyl fluoride, 0.2 mmol/L sodium orthovanadate, 0.5% NP40, 1 μg/mL aprotinin, and 1 μg/mL leupetin. The lysates were centrifuged at 10,000×g for 20 minutes at 4° C. and the supernatant was separated. The protein concentration in the lysates was determined using a Pierce detergent-compatible protein assay kit. For Western blotting, 25 to 50 μg of protein lysate per sample were denatured in 2×SDS-PAGE sample buffer and subjected to SDS-PAGE on a 10% tris-glycine gel. The separated proteins were transferred to a polyvinylidene fluoride membrane and were blocked with 5% nonfat milk powder (w/v) in TBST (10 mmol/L Tris, 10 mmol/L NaCl, 0.1% Tween 20) for 1 hour at room temperature or overnight at 4° C. […] The bound antibodies were detected with horseradish peroxidase-labeled sheep anti-mouse IgG or horseradish peroxidase-labeled donkey anti-rabbit IgG using an enhanced chemiluminescence detection system (ECL Advanced kit). Protein expressions were determined using the Image Gauge v. […]
(In general: A western blot detects proteins with antibodies after separation by electrophoresis.)

In data set [3] the test system is A2780, A2780R, MCF-7, HCT-116, PC-3, HepG2, A549, and SCC4 human cancer cell lines. In words: Cytotoxicity of DAPs to cancer cells (MTT). Type of data set: cell-based. The conditions noted are these: 10 μM, 24 h. On the procedure:
Cell viability was determined by a colorimetric assay using MTT. In the mitochondria of living cells, yellow MTT undergoes a reductive conversion to formazan, giving a purple color. Cells, grown to […] confluence in 75-mm flasks, were trypsinized, counted, seeded in 96-well plates with an average population of 7000 cells/well, incubated overnight, and then treated with the DAPs (H-4073, HO-3867, H4318, or HO-4200; […]) for 24 h. All experiments were done using eight replicates and repeated at least three times. Cell viability was expressed as the percentage of MIT viability of untreated cells.

The test system of data set [4] is A2780 and SKOV3 cells. Nature of the data set: Cell-migration (wound-healing) assay. The data set is classed as cell-based, human. Particulars: 10 μM. On the procedure:
Cell-migration assay was performed by wound-healing method. Cells were plated at equal density and grown to 90% confluence. Wounds were created using a sterile pipette tip. Cells were then rinsed with medium and replaced with the fresh medium and incubated with HO-3867 (10 μM). Areas of wound were marked and photographed at various time-points with a phase-contrast microscope. Cell-invasive assay was measured by an in vitro Boyden chamber assay. Briefly, 1×10^5 cells in 0.5 ml of serum-free RPMI 1640 medium were added to the wells of 8-μm-diameter pore membrane Boyden chambers, either coated with (BD Biosciences, Franklin Lake, N.J.) or without (Corning, Corning, N.Y.) Matrigel. Cells were allowed to invade for 24 hours. Cells that had not penetrated the filters were removed by scrubbing with cotton swabs. Chambers were fixed in 100% methanol for 2 min, stained in 0.5% crystal violet for 2 min, rinsed in PBS and examined using a bright-field microscope. Values for invasion were obtained by counting five fields per membrane and represented as the average of three independent experiments performed over multiple days.

The nature of data set [5]: Body weight and diet consumption of tumor-bearing animals. Type of data set: in vivo. Particulars: 25, 50, and 100 ppm in feed, 5 weeks. As to the method:
Cultured A2780 cancer cells (2×10^6 cells in […] of PBS) were s.c. injected into the back of 6-week-old BALB/c nude mice from the National Cancer Institute. Five to 7 days later, when the tumors reached 3 to 5 mm in diameter, the mice were divided (n=9/group) in a manner to equalize the mean tumor diameter among the groups. The control group was given a normal diet (no treatment), whereas the experimental groups were treated using the DAP compounds mixed with the animal feed (Harlan Teklad) at three different levels (25, 50, and 100 ppm). The doses were chosen based on an initial dose-response study optimized to produce an observable effect on tumor growth. The size of the tumor was measured twice per week using a digital Vernier caliper. The tumor volume was determined from the orthogonal dimensions (d1, d2, d3) using the formula (d1×d2×d3)×π/6. Thirty five days after the beginning of HO-3867 treatment, the mice were sacrificed and the tumors were resected. The tumor tissues were then subjected to immunoblot analysis.
The mice were treated with HO-3867 and the tumor size as measured twice weekly for 5 weeks. […] We also measured the body weight and diet consumption of tumor-bearing animals.

With `CC1(C)C=C(CN2C/C(=C\c3ccc(F)cc3)C(=O)/C(=C/c3ccc(F)cc3)C2)C(C)(C)N1O` [HO-3867, 1-[(1-oxyl-2,2,5,5-tetramethyl-2,5-dihydro-1H-pyrrol-3-yl)methyl]-(3E,5E)-3,5-bis(4-fluorobenzylidene)piperidin-4-one], the “pHER2, pERK1/2, SREBP1, MMP-2, and VEGF” value in data set [1] is listed as “inhibited”. Further, in data set [2], the “cdk2 and cyclin-A levels” value was “significantly decreased”; the “levels of p53 and p21” value is “significantly upregulated”. In data set [3], the “cell viability of human cancer cell lines” value is reported as “substantial loss of cell viability”. Further, the cell migration entry in data set [4] (24 hours, versus untreated cells) is given as “significant inhibition”. Further, the VEGF-induced migration entry in data set [4] (24-h incubation, versus VEGF group) is recorded as “significantly inhibited”. Moreover, in data set [5], the “gross signs of toxicity (body weight, diet consumption)” value was “did not show any gross signs of toxicity”.
